The values below come from patent US20220288001A1, “CREATINE FOR IMMUNOTHERAPY” (The Regents of the University of California, priority 2019, published 2022).

One assay has as its system B16-OVA melanoma. The assay can be described thus: B16-OVA melanoma model in C57BL/6J WT mice, creatine supplementation. It is filed as in vivo, mouse. The note with it: i.p. injection or dietary supplementation, both routes. On the procedure: To establish solid tumors, mice were s.c. injected above the right flank with 1×10^6 B16-OVA or 3×10^5 MC38 cells. Before injection, cells in log phase of growth were harvested and suspended in phosphate-buffered saline (PBS), and 50 μl of cell suspension were injected subcutaneously above the flank. Tumor size was periodically measured with a digital Vernier caliper (Thermo Fisher Scientific). For creatine supplementation via i.p. injection, […] monohydrate (cat #C3630, Sigma-Aldrich) was dissolved in sterile PBS and i.p. injected to experimental animals daily at a dose of 10.5 mg per animal per injection. […] To study the effects of creatine supplementation on suppressing tumor growth, B6 mice were inoculated with B16-OVA tumor cells and monitored for tumor growth, with or without receiving creatine supplementation via i.p. injection or diet. […] To study the T cell-dependence of creatine supplementation induced anti-tumor effects, B6-OVA tumor growth was monitored and compared in B6 mice receiving i.p. injection of an anti-CD3 T cell depleting antibody (clone RMP1-14; 100 μg/mouse/injection, twice per week) or an isotype control antibody (clone LTF-2, 100 μg/mouse/injection, twice per week), with or without i.p. supplement of creatine.

The test system of another assay is B16-OVA tumors. The assay can be described thus: B16-OVA tumors in C57BL/6J WT mice depleted of T cells by anti-CD3 antibody, creatine supplementation. It is filed as in vivo, mouse. The note with it: B16-OVA in C57BL/6J WT mice depleted of T cells via i.p. anti-CD3 depletion antibody. On the procedure:
To establish solid tumors, mice were s.c. injected above the right flank with 1×10^6 B16-OVA or 3×10^5 MC38 cells. Before injection, cells in log phase of growth were harvested and suspended in phosphate-buffered saline (PBS), and 50 μl of cell suspension were injected subcutaneously above the flank. Tumor size was periodically measured with a digital Vernier caliper (Thermo Fisher Scientific). For creatine supplementation via i.p. injection, […] monohydrate (cat #C3630, Sigma-Aldrich) was dissolved in sterile PBS and i.p. injected to experimental animals daily at a dose of 10.5 mg per animal per injection. To study the effects of creatine supplementation on suppressing tumor growth, B6 mice were inoculated with B16-OVA tumor cells and monitored for tumor growth, with or without receiving creatine supplementation via i.p. injection or diet. […] To study the T cell-dependence of creatine supplementation induced anti-tumor effects, B6-OVA tumor growth was monitored and compared in B6 mice receiving i.p. injection of an anti-CD3 T cell depleting antibody ([…]; 100 μg/mouse/injection, twice per week) or an isotype control antibody (clone LTF-2, 100 μg/mouse/injection, twice per week), with or without i.p. supplement of creatine.

Entries after “also recorded” stand apart in the source; their conditions may differ.

On to `CN(CC(=O)O)C(=N)N` [creatine], for which the tumor growth entry is “effectively suppressed tumor growth to a similar extent; also recorded: tumor suppression benefits” in the assay on B16-OVA melanoma and “could not be suppressed” in the assay on B16-OVA tumors.
